Tested on: MV-4-11 cells
Assay: Gene expression microarray analysis (Affymetrix PrimeView) and GSEA
Format: cell-based, human
Parameters: RFU PODN (11730768_x_at) / Fold change /veh PODN (11730768_x_at) / RFU LINC00158 (11744669_a_at) / Fold change /veh LINC00158 (11744669_a_at) / RFU DUSP10 (11751237_a_at) / Fold change /veh DUSP10 (11751237_a_at) / RFU ID3 (11757404_x_at) / Fold change /veh ID3 (11757404_x_at) / RFU PLEKHG5 (11737974_s_at) / Fold change /veh PLEKHG5 (11737974_s_at) / RFU LRRC4B (11730491_at) / Fold change /veh LRRC4B (11730491_at) / RFU GIMAP4 (11747438_a_at) / Fold change /veh GIMAP4 (11747438_a_at) / RFU KRT8 (11758183_x_at) / Fold change /veh KRT8 (11758183_x_at) / RFU CNN1 (11734310_a_at) / Fold change /veh CNN1 (11734310_a_at) / RFU VPS37D (11726825_at) / Fold change /veh VPS37D (11726825_at) / RFU C10orf10 (11716522_x_at) / Fold change /veh C10orf10 (11716522_x_at) / RFU KIR2DL2 /// KIR2DL4 /// KIR2DL5A /// KIR2DL5B /// KIR2DS1 /// KIR2DS2 /// KIR2DS3 /// KIR2DS4 /// KIR3DL3 /// KIR3DL3 /// KIR3DS1 (11738374_at) / Fold change /veh KIR2DL2 /// KIR2DL4 /// KIR2DL5A /// KIR2DL5B /// KIR2DS1 /// KIR2DS2 /// KIR2DS3 /// KIR2DS4 /// KIR3DL3 /// KIR3DL3 /// KIR3DS1 (11738374_at) / RFU C1QL1 (11718748_at) / Fold change /veh C1QL1 (11718748_at) / RFU TMPRSS4 (11747572_a_at) / Fold change /veh TMPRSS4 (11747572_a_at) / RFU HAMP (11756126_x_at) / Fold change /veh HAMP (11756126_x_at) / RFU RNFT2 (11725882_a_at) / Fold change /veh RNFT2 (11725882_a_at) / RFU NR4A2 (11747474_a_at) / Fold change /veh NR4A2 (11747474_a_at) / RFU ABCC12 (11746883_a_at) / Fold change /veh ABCC12 (11746883_a_at) / RFU TMEM136 (11760407_x_at) / Fold change /veh TMEM136 (11760407_x_at) / RFU CLDN22 /// WWC2 (11732394_at) / Fold change /veh CLDN22 /// WWC2 (11732394_at) / RFU HLA-DPB1 (11760878_x_at) / Fold change /veh HLA-DPB1 (11760878_x_at) / RFU SPINT1 (11716480_a_at) / Fold change /veh SPINT1 (11716480_a_at) / RFU GAP43 (11754022_s_at) / Fold change /veh GAP43 (11754022_s_at) / RFU A4GNT (11735810_at) / Fold change /veh A4GNT (11735810_at) / RFU PRB3 (11715151_x_at) / Fold change /veh PRB3 (11715151_x_at) / RFU TUBB4B (11761932_at) / Fold change /veh TUBB4B (11761932_at) / RFU CAPN14 (11732068_a_at) / Fold change /veh CAPN14 (11732068_a_at) / RFU TMCC2 (11721928_a_at) / Fold change /veh TMCC2 (11721928_a_at) / RFU IRGQ (11745062_a_at) / Fold change /veh IRGQ (11745062_a_at) / RFU FAM174B (11720279_a_at) / Fold change /veh FAM174B (11720279_a_at) / RFU TMPRSS4 (11748680_a_at) / Fold change /veh TMPRSS4 (11748680_a_at) / RFU FAM212B (11763350_a_at) / Fold change /veh FAM212B (11763350_a_at) / RFU PLEKHG5 (11743358_a_at) / Fold change /veh PLEKHG5 (11743358_a_at) / RFU ZSCAN30 (11745921_a_at) / Fold change /veh ZSCAN30 (11745921_a_at) / RFU CMKLR1 (11741424_a_at) / Fold change /veh CMKLR1 (11741424_a_at) / RFU LOC101060620 /// MAPK8IP1 (11723275_at) / Fold change /veh LOC101060620 /// MAPK8IP1 (11723275_at) / RFU SPTSSB (11747773_x_at) / Fold change /veh SPTSSB (11747773_x_at) / RFU PRSS12 (11739890_at) / Fold change /veh PRSS12 (11739890_at) / RFU BIN1 (11741810_x_at) / Fold change /veh BIN1 (11741810_x_at) / RFU WNT11 (11732464_a_at) / Fold change /veh WNT11 (11732464_a_at) / RFU C10orf10 (11716521_a_at) / Fold change /veh C10orf10 (11716521_a_at) / RFU C5orf56 (11738089_at) / Fold change /veh C5orf56 (11738089_at) / RFU CYB561 (11721691_x_at) / Fold change /veh CYB561 (11721691_x_at) / RFU ANKRD19P (11752326_a_at) / Fold change /veh ANKRD19P (11752326_a_at) / RFU OR2T12 /// OR2T33 /// OR2T8 (11738714_s_at) / Fold change /veh OR2T12 /// OR2T33 /// OR2T8 (11738714_s_at) / RFU VCAN (11748164_a_at) / Fold change /veh VCAN (11748164_a_at) / RFU JSRP1 (11732532_at) / Fold change /veh JSRP1 (11732532_at) / RFU KRTAP10-11 (11738290_x_at) / Fold change /veh KRTAP10-11 (11738290_x_at) / RFU MYO3A (11730013_a_at) / Fold change /veh MYO3A (11730013_a_at) / RFU EBF3 (11725865_a_at) / Fold change /veh EBF3 (11725865_a_at) / RFU CAMK2N1 (11719241_x_at) / Fold change /veh CAMK2N1 (11719241_x_at) / RFU C5orf56 (11738088_a_at) / Fold change /veh C5orf56 (11738088_a_at) / RFU OLFML3 (11715873_a_at) / Fold change /veh OLFML3 (11715873_a_at) / RFU LOC100653217 /// NTM (11731650_a_at) / Fold change /veh LOC100653217 /// NTM (11731650_a_at) / RFU MAPK11 (11762145_a_at) / Fold change /veh MAPK11 (11762145_a_at) / RFU FIZ1 (11724087_x_at) / Fold change /veh FIZ1 (11724087_x_at) / RFU OASL (11726364_x_at) / Fold change /veh OASL (11726364_x_at) / RFU SOX15 (11748057_x_at) / Fold change /veh SOX15 (11748057_x_at) / RFU CD79A (11719716_a_at) / Fold change /veh CD79A (11719716_a_at) / RFU HIST1H1D (11736915_at) / Fold change /veh HIST1H1D (11736915_at) / RFU CASKIN2 (11723855_a_at) / Fold change /veh CASKIN2 (11723855_a_at) / RFU LOC730098 (11760151_x_at) / Fold change /veh LOC730098 (11760151_x_at) / RFU OR4N2 (11742367_at) / Fold change /veh OR4N2 (11742367_at) / RFU PRRT2 (11749266_a_at) / Fold change /veh PRRT2 (11749266_a_at) / RFU SNX32 (11753110_a_at) / Fold change /veh SNX32 (11753110_a_at) / RFU CDHR5 (11726645_a_at) / Fold change /veh CDHR5 (11726645_a_at) / RFU RCAN1 (11760418_a_at) / Fold change /veh RCAN1 (11760418_a_at) / RFU FAM167A (11723789_a_at) / Fold change /veh FAM167A (11723789_a_at) / RFU FAM26E (11764081_at) / Fold change /veh FAM26E (11764081_at) / RFU ISYNA1 (11749810_s_at) / Fold change /veh ISYNA1 (11749810_s_at) / RFU ACY1 (11761880_at) / Fold change /veh ACY1 (11761880_at) / RFU 11764098_at / Fold change /veh 11764098_at / RFU SAMD14 (11745864_x_at) / Fold change /veh SAMD14 (11745864_x_at) / RFU NPB (11741838_a_at) / Fold change /veh NPB (11741838_a_at) / RFU TMPRSS6 (11731388_a_at) / Fold change /veh TMPRSS6 (11731388_a_at) / RFU KRTAP10-2 (11738614_at) / Fold change /veh KRTAP10-2 (11738614_at) / RFU ARHGAP8 /// PRR5-ARHGAP8 (11727945_x_at) / Fold change /veh ARHGAP8 /// PRR5-ARHGAP8 (11727945_x_at) / RFU KRTAP5-7 /// NADSYN1 (11734609_at) / Fold change /veh KRTAP5-7 /// NADSYN1 (11734609_at) / RFU RASL12 (11751679_a_at) / Fold change /veh RASL12 (11751679_a_at) / RFU CDKN2B (11736163_a_at) / Fold change /veh CDKN2B (11736163_a_at) / RFU PRF1 (11729649_at) / Fold change /veh PRF1 (11729649_at) / RFU, ZNF638 /// ZNF638-IT1 / Fold change vs veh, ZNF638 /// ZNF638-IT1 / RFU, PANK3 / Fold change vs veh, PANK3 / RFU, SH3YL1 / Fold change vs veh, SH3YL1 / RFU, ZEB2 / Fold change vs veh, ZEB2 / RFU, NRIP1 / Fold change vs veh, NRIP1 / RFU, PTTG1IP / Fold change vs veh, PTTG1IP / RFU, CAPN2 / Fold change vs veh, CAPN2 / RFU, MED14 / Fold change vs veh, MED14 / RFU, SNORA58 / Fold change vs veh, SNORA58 / RFU, C1orf63 / Fold change vs veh, C1orf63 / RFU, LRRFIP1 / Fold change vs veh, LRRFIP1 / RFU, NDUFAF7 / Fold change vs veh, NDUFAF7 / RFU, SLC12A2 / Fold change vs veh, SLC12A2 / RFU, IBTK / Fold change vs veh, IBTK / RFU, ESF1 / Fold change vs veh, ESF1 / Fold change vs veh, TMEM50B / RFU, TAOK1 / Fold change vs veh, TAOK1 / RFU, ACBD3 / Fold change vs veh, ACBD3 / RFU, TMA16 / Fold change vs veh, TMA16 / RFU, RWDD3 / Fold change vs veh, RWDD3 / RFU, BCAT1 / Fold change vs veh, BCAT1 / RFU, EDEM3 / Fold change vs veh, EDEM3 / RFU, TMEM33 / Fold change vs veh, TMEM33 / RFU, WDR75 / Fold change vs veh, WDR75 / RFU, AHCTF1 / Fold change vs veh, AHCTF1 / RFU, TFRC / Fold change vs veh, TFRC / RFU, ZDHHC17 / Fold change vs veh, ZDHHC17 / RFU, NOM1 / Fold change vs veh, NOM1 / RFU, ARL8B / Fold change vs veh, ARL8B / RFU, ZBTB11 / Fold change vs veh, ZBTB11 / RFU, TAMM41 / Fold change vs veh, TAMM41 / RFU, KIAA1704 /// LOC100996395 / Fold change vs veh, KIAA1704 /// LOC100996395 / RFU, ING1 / Fold change vs veh, ING1 / RFU, TRMT61B / Fold change vs veh, TRMT61B / RFU, FUBP3 / Fold change vs veh, FUBP3 / RFU, TP53 / Fold change vs veh, TP53 / RFU, TNKS2 / Fold change vs veh, TNKS2 / RFU, ZFP14 / Fold change vs veh, ZFP14 / RFU, ACTR2 / Fold change vs veh, ACTR2 / RFU, PPP3R1 / Fold change vs veh, PPP3R1 / RFU, PIK3R1 / Fold change vs veh, PIK3R1 / RFU, HNRNPA1 / Fold change vs veh, HNRNPA1 / RFU, RNF170 / Fold change vs veh, RNF170 / RFU, ZNF28 / Fold change vs veh, ZNF28 / RFU, RNGTT / Fold change vs veh, RNGTT / RFU, OGT / Fold change vs veh, OGT / RFU, BRD1 / Fold change vs veh, BRD1 / RFU, MARS / Fold change vs veh, MARS / RFU, ZNF655 / Fold change vs veh, ZNF655 / RFU, FAHD1 / Fold change vs veh, FAHD1 / RFU, BDP1 / Fold change vs veh, BDP1 / RFU, LRRCC1 / Fold change vs veh, LRRCC1 / RFU, ARID1A / Fold change vs veh, ARID1A / RFU, ZNF146 / Fold change vs veh, ZNF146 / RFU, ZNF330 / Fold change vs veh, ZNF330 / RFU, GPN3 / Fold change vs veh, GPN3 / RFU, C9orf123 / Fold change vs veh, C9orf123 / RFU, N4BP2L2 / Fold change vs veh, N4BP2L2 / RFU, ARFIP1 / Fold change vs veh, ARFIP1 / RFU, FAM179B / Fold change vs veh, FAM179B / RFU, BCL10 / Fold change vs veh, BCL10 / RFU, UHRF1BP1L / Fold change vs veh, UHRF1BP1L / RFU, BET1 / Fold change vs veh, BET1 / RFU, CNOT2 / Fold change vs veh, CNOT2 / RFU, ZNF268 / Fold change vs veh, ZNF268 / Fold change vs veh, ZNF507 / RFU, DGCR2 / Fold change vs veh, DGCR2 / RFU, WDSUB1 / Fold change vs veh, WDSUB1 / Fold change vs veh, HSP90B1 /// MIR3652 / RFU, ADSS / Fold change vs veh, ADSS / RFU, GK / Fold change vs veh, GK / RFU, ZNF148 / Fold change vs veh, ZNF148 / RFU, TAF9 / Fold change vs veh, TAF9 / RFU, SLC1A5 / Fold change vs veh, SLC1A5 / RFU, SLMO2 / Fold change vs veh, SLMO2 / RFU, ABCC4 / Fold change vs veh, ABCC4 / RFU, LOC101060439 /// RAP1B / Fold change vs veh, LOC101060439 /// RAP1B / RFU, RFX7 / Fold change vs veh, RFX7 / RFU, GTPBP10 / Fold change vs veh, GTPBP10 / RFU, CNEP1R1 / Fold change vs veh, CNEP1R1 / RFU, BIVM-ERCC5 /// ERCC5 / Fold change vs veh, BIVM-ERCC5 /// ERCC5 / RFU, ILF3 / Fold change vs veh, ILF3 / RFU 11762660_at / Fold change /veh 11762660_at / RFU VCAN (11757783_s_at) / Fold change /veh VCAN (11757783_s_at) / RFU DDX43 (11728927_at) / Fold change /veh DDX43 (11728927_at) / RFU KRT8 (11758188_x_at) / Fold change /veh KRT8 (11758188_x_at) / RFU NKD1 (11759106_at) / Fold change /veh NKD1 (11759106_at) / RFU SRD5A1 (11742802_a_at) / Fold change /veh SRD5A1 (11742802_a_at) / RFU TPSAB1 /// TPSB2 (11721975_s_at) / Fold change /veh TPSAB1 /// TPSB2 (11721975_s_at) / RFU GSTM3 (11746129_a_at) / Fold change /veh GSTM3 (11746129_a_at) / RFU IL23R (11737362_x_at) / Fold change /veh IL23R (11737362_x_at) / RFU TMEM51 (11727254_a_at) / Fold change /veh TMEM51 (11727254_a_at) / RFU PIWIL2 (11732686_x_at) / Fold change /veh PIWIL2 (11732686_x_at) / RFU ORM1 (11744905_x_at) / Fold change /veh ORM1 (11744905_x_at) / RFU CCDC152 (11743942_at) / Fold change /veh CCDC152 (11743942_at) / RFU ECM1 (11717891_a_at) / Fold change /veh ECM1 (11717891_a_at) / RFU IL23R (11748794_a_at) / Fold change /veh IL23R (11748794_a_at) / RFU TNFAIP8L3 (11732012_x_at) / Fold change /veh TNFAIP8L3 (11732012_x_at) / RFU MBOAT4 (11741988_at) / Fold change /veh MBOAT4 (11741988_at) / RFU 11764193_at / Fold change /veh 11764193_at / RFU TMEM53 (11763286_at) / Fold change /veh TMEM53 (11763286_at) / RFU MAGEB2 (11727129_at) / Fold change /veh MAGEB2 (11727129_at) / RFU TMEM200A (11744735_a_at) / Fold change /veh TMEM200A (11744735_a_at) / RFU CCDC152 (11751479_a_at) / Fold change /veh CCDC152 (11751479_a_at) / RFU FAM211A (11726209_a_at) / Fold change /veh FAM211A (11726209_a_at) / RFU RGS16 (11746705_a_at) / Fold change /veh RGS16 (11746705_a_at) / RFU VCAN (11755009_s_at) / Fold change /veh VCAN (11755009_s_at) / RFU RHOB (11743442_s_at) / Fold change /veh RHOB (11743442_s_at) / RFU RGS16 (11720943_a_at) / Fold change /veh RGS16 (11720943_a_at) / RFU RGS16 (11720944_at) / Fold change /veh RGS16 (11720944_at) / RFU, VPS4B / Fold change vs veh, VPS4B / RFU, CREB1 / Fold change vs veh, CREB1 / RFU, DNAJC13 / Fold change vs veh, DNAJC13 / RFU, GNAQ / Fold change vs veh, GNAQ / RFU, CDK5R1 / Fold change vs veh, CDK5R1 / RFU, ZRANB3 / Fold change vs veh, ZRANB3 / RFU, CUL4A / Fold change vs veh, CUL4A / RFU, CCNY / Fold change vs veh, CCNY / RFU, UFL1 / Fold change vs veh, UFL1 / RFU, COG3 / Fold change vs veh, COG3 / RFU, DIAPH2 / Fold change vs veh, DIAPH2 / RFU, SKA2 / Fold change vs veh, SKA2 / RFU, AFF3 / Fold change vs veh, AFF3 / RFU, LMF1 / Fold change vs veh, LMF1 / RFU, IPO11 / Fold change vs veh, IPO11 / RFU, DFFB / Fold change vs veh, DFFB / RFU, FOXP1 / Fold change vs veh, FOXP1 / RFU, CARD8 / Fold change vs veh, CARD8 / RFU, STRN3 / Fold change vs veh, STRN3 / RFU, ADK / Fold change vs veh, ADK / RFU, RASSF2 / Fold change vs veh, RASSF2 / RFU, WIPF1 / Fold change vs veh, WIPF1 / RFU, LARP1B / Fold change vs veh, LARP1B / RFU, RASA1 / Fold change vs veh, RASA1 / RFU, RB1 / Fold change vs veh, RB1 / RFU, PPFIA1 / Fold change vs veh, PPFIA1 / RFU, MAT2A / Fold change vs veh, MAT2A / RFU, CCT5 / Fold change vs veh, CCT5 / RFU, WDR92 / Fold change vs veh, WDR92 / RFU, CUX1 / Fold change vs veh, CUX1 / RFU, TTC7A / Fold change vs veh, TTC7A / RFU, TMEM135 / Fold change vs veh, TMEM135 / RFU, DEPTOR / Fold change vs veh, DEPTOR / RFU, CPM / Fold change vs veh, CPM / RFU, DNAJB6 / Fold change vs veh, DNAJB6 / RFU, CACNA2D3 / Fold change vs veh, CACNA2D3 / RFU, DTX4 / Fold change vs veh, DTX4 / RFU, TFCP2 / Fold change vs veh, TFCP2 / RFU, GMCL1 /// GMCL1P1 / Fold change vs veh, GMCL1 /// GMCL1P1 / RFU, AEBP2 / Fold change vs veh, AEBP2 / RFU, SNHG1 /// SNORD22 /// SNORD25 /// SNORD26 /// SNORD27 /// SNORD28 /// SNORD29 /// SNORD31 / Fold change vs veh, SNHG1 /// SNORD22 /// SNORD25 /// SNORD26 /// SNORD27 /// SNORD28 /// SNORD29 /// SNORD31 / Fold change (Aza/veh), C12orf56 (ProbeSet 11735607_a_at) / Fold change (ACY-1035/veh), C12orf56 (ProbeSet 11735607_a_at) / Fold change (Aza/veh), FGFR1OP (ProbeSet 11751329_s_at) / Fold change (ACY-1035/veh), FGFR1OP (ProbeSet 11751329_s_at) / Fold change (Aza/veh), VPS36 (ProbeSet 11739960_a_at) / Fold change (ACY-1035/veh), VPS36 (ProbeSet 11739960_a_at) / RFU SYPL1 (11715823_x_at) / Fold change /veh SYPL1 (11715823_x_at) / RFU IGFBP7 (11715501_s_at) / Fold change /veh IGFBP7 (11715501_s_at) / RFU REEP3 (11722064_at) / Fold change /veh REEP3 (11722064_at) / RFU IGLL1 (11728026_x_at) / Fold change /veh IGLL1 (11728026_x_at): dose or concentration left out as unconfirmed
Settings: ProbeSet 11726661_s_at; LIST B

SMILES: Nc1ccc(-c2cccs2)cc1NC(=O)c1ccc2c(c1)cc(C1CC1)n2CCN1CCOCC1 [ACY-1035]
- RFU, GPN3: 242.51 RFU
